{"source": "ChEMBL document CHEMBL5053535", "about": "“Design, synthesis and biological evaluation of novel aminopyrazole- and 7-azaindole-based Nek1 inhibitors and their effects on zebrafish kidney development” (Bioorg Med Chem Lett, 2021)", "key": {"[1]": {"assay": "Solubility of the compound in DMEM with 1% DMSO by DAD-HPLC based shake flask method", "type": "physicochemical"}, "[2]": {"target": "T1, Serine/threonine-protein kinase Nek1 (Homo sapiens, UniProt Q96PY6)", "T1 sequence (Q96PY6 whole entry)": "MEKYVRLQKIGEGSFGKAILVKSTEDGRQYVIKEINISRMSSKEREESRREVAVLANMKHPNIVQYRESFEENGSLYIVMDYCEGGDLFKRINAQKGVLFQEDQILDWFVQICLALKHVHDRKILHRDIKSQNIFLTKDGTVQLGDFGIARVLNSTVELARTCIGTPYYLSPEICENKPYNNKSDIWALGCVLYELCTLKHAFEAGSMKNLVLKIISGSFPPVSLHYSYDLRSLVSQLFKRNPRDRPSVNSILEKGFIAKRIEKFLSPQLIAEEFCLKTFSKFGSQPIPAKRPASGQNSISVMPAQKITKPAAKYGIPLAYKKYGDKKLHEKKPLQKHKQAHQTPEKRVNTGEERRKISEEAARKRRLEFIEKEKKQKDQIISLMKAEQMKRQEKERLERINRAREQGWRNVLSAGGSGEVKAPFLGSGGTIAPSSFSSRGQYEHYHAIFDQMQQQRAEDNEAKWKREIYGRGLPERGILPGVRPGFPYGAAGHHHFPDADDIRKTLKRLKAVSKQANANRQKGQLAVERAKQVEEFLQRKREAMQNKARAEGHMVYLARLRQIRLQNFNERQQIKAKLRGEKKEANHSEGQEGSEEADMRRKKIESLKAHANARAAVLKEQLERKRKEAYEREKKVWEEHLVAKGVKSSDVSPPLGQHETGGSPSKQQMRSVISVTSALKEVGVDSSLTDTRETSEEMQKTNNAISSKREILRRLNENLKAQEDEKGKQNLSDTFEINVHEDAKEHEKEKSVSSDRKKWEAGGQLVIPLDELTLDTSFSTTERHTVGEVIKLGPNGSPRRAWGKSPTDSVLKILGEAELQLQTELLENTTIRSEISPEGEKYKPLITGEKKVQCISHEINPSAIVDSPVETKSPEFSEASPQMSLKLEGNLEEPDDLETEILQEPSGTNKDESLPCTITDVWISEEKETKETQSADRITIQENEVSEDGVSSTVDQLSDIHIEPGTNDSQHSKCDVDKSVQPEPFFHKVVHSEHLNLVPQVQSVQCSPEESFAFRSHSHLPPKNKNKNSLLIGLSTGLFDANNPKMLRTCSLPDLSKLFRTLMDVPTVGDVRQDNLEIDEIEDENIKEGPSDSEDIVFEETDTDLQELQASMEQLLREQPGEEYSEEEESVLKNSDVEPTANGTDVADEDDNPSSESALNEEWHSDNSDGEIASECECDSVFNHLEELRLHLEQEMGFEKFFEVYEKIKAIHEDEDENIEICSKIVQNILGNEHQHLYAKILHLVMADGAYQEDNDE", "assay": "Inhibition of human NEK1 using myelin basic protein as substrate assessed as residual activity in presence of [gamma-33P]-ATP by radiometric hotspot kinase assay relative to control"}, "[3]": {"target": "T2, Serine/threonine-protein kinase Nek1 (Homo sapiens) (UniProt Q96PY6)", "T2 sequence (whole entry)": "T1 sequence (Q96PY6 whole entry)", "assay": "Inhibition of human NEK1 using myelin basic protein as substrate assessed as residual activity at 1 uM in presence of [gamma-33P]-ATP by radiometric hotspot kinase assay relative to control"}, "[4]": {"target": "Wee1-like protein kinase (Homo sapiens) (UniProt P30291)", "sequence (P30291 whole entry, looked up)": "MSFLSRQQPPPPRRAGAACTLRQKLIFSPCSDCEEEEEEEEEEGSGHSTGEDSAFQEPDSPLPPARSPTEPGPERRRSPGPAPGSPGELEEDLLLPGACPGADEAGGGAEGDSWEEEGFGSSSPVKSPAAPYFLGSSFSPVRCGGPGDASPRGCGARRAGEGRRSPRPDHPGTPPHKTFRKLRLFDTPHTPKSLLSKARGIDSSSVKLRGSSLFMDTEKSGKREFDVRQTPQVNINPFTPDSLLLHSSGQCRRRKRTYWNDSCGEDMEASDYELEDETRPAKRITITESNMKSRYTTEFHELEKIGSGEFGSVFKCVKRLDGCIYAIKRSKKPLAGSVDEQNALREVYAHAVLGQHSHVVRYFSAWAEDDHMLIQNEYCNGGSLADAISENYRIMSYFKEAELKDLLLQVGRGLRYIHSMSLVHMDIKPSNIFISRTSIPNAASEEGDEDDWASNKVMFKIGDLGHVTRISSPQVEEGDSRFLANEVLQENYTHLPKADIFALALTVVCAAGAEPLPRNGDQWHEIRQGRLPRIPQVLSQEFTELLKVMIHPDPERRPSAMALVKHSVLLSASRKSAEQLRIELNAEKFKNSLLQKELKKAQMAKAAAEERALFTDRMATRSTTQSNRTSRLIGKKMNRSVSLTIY", "assay": "Inhibition of human recombinant full length WEE1 expressed in insect cells using MBP as substrate assessed as residual activity at 1 uM pretreated for 20 mins followed by [33P]-ATP addition measured after 120 mins by radiometric hotspot kinase assay relative to control", "conditions": "time 140.0 min"}, "[5]": {"assay": "Toxicity in zebra fish embryos assessed as lethality at 2.5 uM measured after 24 hrs relative to control", "type": "organism-based, Danio rerio", "conditions": "zebrafish, in vivo, read-out: Activity"}, "[6]": {"target": "Cyclin-dependent kinase 2/cyclin E1 (Homo sapiens) (UniProt P24864+P24941)", "assay": "Inhibition of human recombinant full length C-terminal His6 tagged CDK2/ N-terminal GST-tagged Cyclin E expressed in baculovirus infected Sf21 insect cells using histone H1 as substrate assessed as residual activity at 1 uM pretreated for 20 mins followed by [33P]-ATP addition measured after 120 mins by radiometric hotspot kinase assay relative to control", "conditions": "time 140.0 min"}, "[7]": {"assay": "Permeability across apical to basolateral side in human Caco-2 cells at pH 6.5 at 1 uM", "type": "ADME, cell-based", "conditions": "Caco-2, pH 6.5, read-out: permeability"}, "[8]": {"assay": "Solubility of the compound in E3 medium with 0.2% DMSO by DAD-HPLC based shake flask method", "type": "physicochemical"}, "[9]": {"assay": "Permeability across apical to basolateral side in human Caco-2 cells at pH 6.5 assessed as compound recovery at 1 uM", "type": "ADME, cell-based", "conditions": "Caco-2, pH 6.5, read-out: Drug recovery"}, "[10]": {"target": "T3, Serine/threonine-protein kinase Nek5 (Homo sapiens) (UniProt Q6P3R8)", "T3 sequence (whole entry)": "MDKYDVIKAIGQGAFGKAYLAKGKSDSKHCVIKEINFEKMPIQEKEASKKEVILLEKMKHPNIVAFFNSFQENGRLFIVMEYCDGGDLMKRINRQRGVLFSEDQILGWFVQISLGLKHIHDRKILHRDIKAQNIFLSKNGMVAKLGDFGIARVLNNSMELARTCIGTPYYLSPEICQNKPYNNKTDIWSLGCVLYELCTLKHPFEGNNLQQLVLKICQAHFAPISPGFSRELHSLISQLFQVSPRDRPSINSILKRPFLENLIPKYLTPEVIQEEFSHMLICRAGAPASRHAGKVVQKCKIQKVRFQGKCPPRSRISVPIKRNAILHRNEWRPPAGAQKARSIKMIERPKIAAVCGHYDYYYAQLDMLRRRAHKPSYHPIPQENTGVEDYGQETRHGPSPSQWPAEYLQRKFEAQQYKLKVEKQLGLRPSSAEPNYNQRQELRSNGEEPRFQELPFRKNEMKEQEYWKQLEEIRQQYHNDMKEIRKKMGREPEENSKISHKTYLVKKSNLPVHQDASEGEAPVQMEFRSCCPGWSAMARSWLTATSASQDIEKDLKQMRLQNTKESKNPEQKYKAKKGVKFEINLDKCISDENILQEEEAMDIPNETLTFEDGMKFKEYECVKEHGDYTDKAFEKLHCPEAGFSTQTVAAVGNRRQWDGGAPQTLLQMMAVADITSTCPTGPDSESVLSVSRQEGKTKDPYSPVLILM", "assay": "Inhibition of human recombinant NEK5 assessed as residual activity at 1 uM pretreated for 20 mins followed by [33P]-ATP addition measured after 120 mins by radiometric hotspot kinase assay relative to control", "conditions": "time 140.0 min"}, "[11]": {"target": "Vascular endothelial growth factor receptor 2 (Homo sapiens) (UniProt P35968)", "sequence (P35968 whole entry, the tested form may be a part)": "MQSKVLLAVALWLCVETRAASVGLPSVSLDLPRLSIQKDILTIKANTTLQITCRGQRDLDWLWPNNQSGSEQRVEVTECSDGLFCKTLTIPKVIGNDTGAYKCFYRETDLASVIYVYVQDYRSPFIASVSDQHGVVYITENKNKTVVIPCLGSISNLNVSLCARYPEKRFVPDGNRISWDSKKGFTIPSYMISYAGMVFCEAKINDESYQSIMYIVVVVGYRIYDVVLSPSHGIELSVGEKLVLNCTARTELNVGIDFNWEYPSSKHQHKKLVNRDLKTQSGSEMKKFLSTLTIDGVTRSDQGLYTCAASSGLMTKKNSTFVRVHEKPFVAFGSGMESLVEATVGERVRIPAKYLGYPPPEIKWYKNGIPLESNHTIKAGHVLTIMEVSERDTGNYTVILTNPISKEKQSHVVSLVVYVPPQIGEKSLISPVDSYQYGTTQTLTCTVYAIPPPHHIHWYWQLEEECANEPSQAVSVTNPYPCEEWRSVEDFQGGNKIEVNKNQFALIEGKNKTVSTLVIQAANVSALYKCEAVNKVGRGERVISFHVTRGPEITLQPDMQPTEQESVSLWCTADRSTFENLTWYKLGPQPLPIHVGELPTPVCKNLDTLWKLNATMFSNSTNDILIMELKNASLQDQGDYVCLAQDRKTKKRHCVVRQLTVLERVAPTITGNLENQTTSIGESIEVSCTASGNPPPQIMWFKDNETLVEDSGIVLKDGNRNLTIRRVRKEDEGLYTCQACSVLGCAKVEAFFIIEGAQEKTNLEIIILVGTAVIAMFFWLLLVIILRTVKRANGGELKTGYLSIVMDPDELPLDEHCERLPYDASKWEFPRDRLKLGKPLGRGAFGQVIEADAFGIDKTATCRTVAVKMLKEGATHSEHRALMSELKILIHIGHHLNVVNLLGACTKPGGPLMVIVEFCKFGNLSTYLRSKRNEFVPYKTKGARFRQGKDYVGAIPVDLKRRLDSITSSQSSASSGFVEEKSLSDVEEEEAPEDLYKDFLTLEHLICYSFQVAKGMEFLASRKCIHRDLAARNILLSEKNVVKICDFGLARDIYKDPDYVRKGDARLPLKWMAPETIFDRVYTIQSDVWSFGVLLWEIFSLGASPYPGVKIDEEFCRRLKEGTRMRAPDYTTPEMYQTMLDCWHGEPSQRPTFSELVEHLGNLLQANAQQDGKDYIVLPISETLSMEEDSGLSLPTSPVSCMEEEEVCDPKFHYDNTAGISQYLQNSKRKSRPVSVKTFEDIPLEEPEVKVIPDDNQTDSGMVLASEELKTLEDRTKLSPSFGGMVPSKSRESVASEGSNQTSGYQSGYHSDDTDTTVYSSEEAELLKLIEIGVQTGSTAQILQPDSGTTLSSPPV", "assay": "Inhibition of human recombinant C-terminal His6 tagged VEGFR2 (789 to 1356 residues) expressed in baculovirus infected insect cells assessed as residual activity at 1 uM pretreated for 20 mins followed by [33P]-ATP addition measured after 120 mins by radiometric hotspot kinase assay relative to control", "conditions": "time 140.0 min"}, "[12]": {"assay": "Permeability across basolateral to apical side in human Caco-2 cells at pH 7.4 at 1 uM", "type": "ADME, cell-based", "conditions": "Caco-2, pH 7.4, read-out: permeability"}, "[13]": {"assay": "Stability of the compound in DMEM measured after 48 hrs by DAD-HPLC method", "type": "physicochemical", "conditions": "read-out: Stability"}}}
{"smiles": "COC(=O)c1cccc(-c2cnc3[nH]cc(-c4cccnc4)c3c2)c1", "values": [{"measurement": "solubility", "setting": "[1]", "result": 4.3, "unit": "µM"}, {"measurement": "IC50", "setting": "[2]", "result": 11.5, "unit": "nM"}, {"measurement": "Activity", "setting": "[3]", "result": -0.6, "unit": "%"}, {"measurement": "Activity", "setting": "[4]", "result": 82.1, "unit": "%"}, {"measurement": "mortality at 24 h, 2.5 µM", "setting": "[5]", "result": 100, "unit": "%"}, {"measurement": "Activity", "setting": "[6]", "result": 1.6, "unit": "%"}, {"measurement": "Papp A→B at 1 µM", "setting": "[7]", "result": 0.13, "unit": "×10⁻⁶ cm/s"}, {"measurement": "solubility", "setting": "[8]", "result": 1.9, "unit": "µM"}, {"measurement": "recovery at 1 µM", "setting": "[9]", "result": 0.4, "unit": "%"}, {"measurement": "Activity", "setting": "[10]", "result": 10.4, "unit": "%"}, {"measurement": "Activity", "setting": "[11]", "result": 34.3, "unit": "%"}, {"measurement": "Papp B→A at 1 µM", "setting": "[12]", "result": 0.04, "unit": "×10⁻⁶ cm/s"}, {"measurement": "remaining at 48 h", "setting": "[13]", "result": 103, "unit": "%"}]}
